{"source": "patent US9951063B2", "about": "“8-(piperazin-1-yl)-1,2,3,4-tetrahydro-isoquinoline derivatives” (IDORSIA PHARMACEUTICALS LTD, priority 2014, dated 2018)", "target": "human CXCR3A (Homo sapiens (Human), UniProt P49682)", "sequence (P49682 whole entry)": "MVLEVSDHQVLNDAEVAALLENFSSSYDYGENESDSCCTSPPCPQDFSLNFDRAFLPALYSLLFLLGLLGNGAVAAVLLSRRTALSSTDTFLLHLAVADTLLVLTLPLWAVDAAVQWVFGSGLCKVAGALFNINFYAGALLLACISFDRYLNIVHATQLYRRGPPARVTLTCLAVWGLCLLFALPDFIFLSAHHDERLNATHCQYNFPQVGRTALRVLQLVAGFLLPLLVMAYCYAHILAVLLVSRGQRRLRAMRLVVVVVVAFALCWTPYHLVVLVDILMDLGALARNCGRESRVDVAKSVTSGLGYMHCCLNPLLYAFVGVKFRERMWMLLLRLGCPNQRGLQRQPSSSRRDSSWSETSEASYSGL", "assay": "FLIPR assay (inhibition of CXCL10-induced calcium signal)", "assay_type": "cell-based", "details": "engineered CHO-K1 cells expressing human CXCR3A coupled to Galpha(16); Fluo-4-AM; CXCL10 agonist 20 nM; mean values where determined several times", "summary_of_the_method": "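CHO-K1 cells expressing human CXCR3A coupled to Gα16 were loaded with Fluo-4-AM for 1 h in HBSS/20 mM Hepes pH 7.4 with probenecid. Compound was added, then CXCL10 (20 nM as dispensed). Baseline-subtracted peak fluorescence gave inhibition curves and IC50, averaged over repeats.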", "data": [{"smiles": "Cc1nc(C)n(CC(=O)N2CCN(c3cc(F)c(F)c4c3CN(c3cnc(C(F)(F)F)nc3)CC4)C[C@H]2C)n1", "note": "[Example 147, 1-{(R)-4-[5,6-Difluoro-2-(2-trifluoromethyl-pyrimidin-5-yl)-1,2,3,4-tetrahydro-isoquinolin-8-yl]-2-methyl-piperazin-1-yl}-2-(3,5-dimethyl-[1,2,4]triazol-1-yl)-ethanone]", "values": [{"measurement": "IC50", "result": 8.58, "unit": "nM"}]}]}
